How the values were obtained:
Assay in all cases: combination Emax (second highest fraction inhibited in the dose matrix, 72 h); higher = more inhibition; extreme values may be limits of the assay
[1] = test system: KINGS-1 (Low Grade Glioma)
Summary of the method: (§1)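 Cell lines in DMEM/F12 or RPMI with 10% FBS were plated in 1536-well plates, held 24 hours at 37°C, 5% CO2, then given two-drug dose matrices for 72 hours (DMSO typically 0.2%). Viability was read by CellTiter-Glo 2.0 luminescence and scaled as inhibition from 0 (vehicle wells) to 1 (blank wells). Combination Emax is the second-highest inhibition in the matrix; Bliss excess is observed combination effect minus expected EA + EB − EA·EB, EA and EB being single-agent effects.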

[2] = test system: ASH-3 (Thyroid Gland Carcinoma)
Summary of the method: as §1

[3] = test system: SCC-9 (Oral Cavity Carcinoma)
Summary of the method: as §1

[4] = test system: OCUB-M (Breast Carcinoma)
Summary of the method: as §1

[5] = test system: OVISE (Ovarian Carcinoma)
Summary of the method: as §1

GI-1 (Glioblastoma) = test system: GI-1 (Glioblastoma)
Summary of the method: as §1

NB7 (Neuroblastoma) = test system: NB7 (Neuroblastoma)
Summary of the method: as §1

[6] = test system: LOU-NH91 (Squamous Cell Lung Carcinoma)
Summary of the method: as §1

[7] = test system: KP-2 (Pancreatic Carcinoma)
Summary of the method: as §1

[8] = test system: OCUM-1 (Gastric Carcinoma)
Summary of the method: as §1

[9] = test system: KLE (Endometrial Carcinoma)
Summary of the method: as §1

EW-18 (Ewing's Sarcoma) = test system: EW-18 (Ewing's Sarcoma)
Summary of the method: as §1

GOTO (Neuroblastoma) = test system: GOTO (Neuroblastoma)
Summary of the method: as §1

[10] = test system: NCI-H322M (Lung Adenocarcinoma)
Summary of the method: as §1

[11] = test system: NCI-H513 (Other Solid Carcinomas)
Summary of the method: as §1

[12] = test system: LC4-1 (B-Lymphoblastic Leukemia)
Summary of the method: as §1

CCc1c2c(nc3ccc(O)cc13)-c1cc3c(c(=O)n1C2)COC(=O)[C@]3(O)CC [SN-38] + O=C(c1cc(Cc2n[nH]c(=O)c3ccccc23)ccc1F)N1CCN(C(=O)C2CC2)CC1 [Olaparib] (first compound max 0.3 µM, 7x7, partner max 10 µM)
combination Emax [1]: 0.287 | combination Emax [2]: 0.912 | combination Emax [3]: 0.365 | combination Emax [4]: 0.922 | combination Emax [5]: 0.293 | combination Emax (GI-1 (Glioblastoma)): 0.954 | combination Emax (NB7 (Neuroblastoma)): 0.967 | combination Emax [6]: 0.883 | combination Emax [7]: 0.55 | combination Emax [8]: 0.645 | combination Emax [9]: 0.453 | combination Emax (EW-18 (Ewing's Sarcoma)): 0.773 | combination Emax (GOTO (Neuroblastoma)): 0.879 | combination Emax [10]: 0.869 | combination Emax [11]: 0.615 | combination Emax [12]: 0.948
